Measured values published in patent US20260070889A1, “5-PYRIDINE-1H-INDAZOLE COMPOUND, PHARMACEUTICAL COMPOSITION, AND USE” (CHINA PHARMACEUTICAL UNIVERSITY, priority 2022, published 2026).
Read-outs that look alike come from different tables or passages of the source.

What was measured:
CLK3 = CLK3 (Homo sapiens, UniProt P49761); experiment: In vitro kinase inhibition, ADP-Glo enzyme activity assay; assay type: biochemical
Experimental: (§1) (1) The positive drug was diluted in a 4-fold gradient with DMSO in a dilution plate, with the final initial concentrations of the compound being 1 & 0.02 & 0.1 μM.
(§2) (2) The compound was diluted 50-fold into the 1× kinase reaction buffer and oscillated on an oscillator for 20 min.
(§3) (3) The 2× kinase was prepared using the 1× enzyme reaction buffer.
(§4) (4) 2 μL of the kinase was added per well to the reaction plate.
(§5) (5) 1 μL of the compound diluted in the buffer was added to each well. The plate was sealed with a plate-sealing film, centrifuged at 1000 rpm for 60 s, and incubated at 25° C. for 10 min.
(§6) (6) 4× ATP & sub mixture was prepared using the 1× enzyme reaction buffer, and 1 μL of the 4× ATP & sub mixture was added to the reaction plate.
(§7) (7) The plate was sealed with a plate-sealing film, centrifuged at 1000 rpm for 60 s, and incubated at 25° C. for 60 min.
(§8) (8) 4 μL of ADP-Glo was transferred to the 384 reaction plate, and the plate was centrifuged at 1000 rpm for 1 min and incubated at 25° C. for 40 min.
(§9) (9) 8 μL of Detection solution was transferred to the 384 reaction plate, and the plate was centrifuged at 1000 rpm for 1 min and incubated at 25° C. for 40 min.
(§10) (10) The RLU (relative luminescence unit) signal was read using a BMG multifunctional microplate reader, and the signal intensity was used to characterize the degree of the kinase activity.
(§11) • (1) the ratio of each well was calculated; • (2) the inhibition rate was calculated as follows:
(§12) compound inhibition rate (% inh)=100%−(compound−positive control)/(negative control−positive control)×100% • (3) the IC50 was calculated, and the inhibition curves of the compounds were plotted: • the following nonlinear fitting formula was used to obtain the IC50 (half maximal inhibitory concentration) of the compounds: Graphpad 7.0 software was used for data analysis.
(§13) [formula] • X: log value of the concentration of the compound, Y: inhibition rate (% inhibition).

CLK4 = CLK4 (Homo sapiens, UniProt Q9HAZ1); experiment: as above; assay type: biochemical; settings: read-out: Enzymatic activity (IC50) CLK4
Sequence of CLK4 (Q9HAZ1 whole entry): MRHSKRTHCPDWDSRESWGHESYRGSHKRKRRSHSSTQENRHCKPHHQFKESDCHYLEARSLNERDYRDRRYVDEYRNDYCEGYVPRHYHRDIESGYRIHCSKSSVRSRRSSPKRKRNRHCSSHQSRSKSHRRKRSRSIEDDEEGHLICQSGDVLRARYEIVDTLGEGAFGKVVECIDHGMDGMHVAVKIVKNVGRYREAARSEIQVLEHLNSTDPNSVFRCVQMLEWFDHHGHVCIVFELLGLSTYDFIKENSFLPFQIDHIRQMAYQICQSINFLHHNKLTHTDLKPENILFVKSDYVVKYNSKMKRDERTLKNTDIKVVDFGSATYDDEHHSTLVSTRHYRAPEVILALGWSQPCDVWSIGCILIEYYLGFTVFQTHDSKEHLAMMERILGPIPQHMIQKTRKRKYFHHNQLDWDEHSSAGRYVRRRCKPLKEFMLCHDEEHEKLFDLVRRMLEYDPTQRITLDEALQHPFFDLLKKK
Experimental: as §1, §2, §3, §4, §5, §6, §7, §8, §9, §10, §11, §12, §13

CLK2 = CLK2 (Homo sapiens, UniProt P49760); experiment: as above; assay type: biochemical
Sequence of CLK2 (P49760 whole entry): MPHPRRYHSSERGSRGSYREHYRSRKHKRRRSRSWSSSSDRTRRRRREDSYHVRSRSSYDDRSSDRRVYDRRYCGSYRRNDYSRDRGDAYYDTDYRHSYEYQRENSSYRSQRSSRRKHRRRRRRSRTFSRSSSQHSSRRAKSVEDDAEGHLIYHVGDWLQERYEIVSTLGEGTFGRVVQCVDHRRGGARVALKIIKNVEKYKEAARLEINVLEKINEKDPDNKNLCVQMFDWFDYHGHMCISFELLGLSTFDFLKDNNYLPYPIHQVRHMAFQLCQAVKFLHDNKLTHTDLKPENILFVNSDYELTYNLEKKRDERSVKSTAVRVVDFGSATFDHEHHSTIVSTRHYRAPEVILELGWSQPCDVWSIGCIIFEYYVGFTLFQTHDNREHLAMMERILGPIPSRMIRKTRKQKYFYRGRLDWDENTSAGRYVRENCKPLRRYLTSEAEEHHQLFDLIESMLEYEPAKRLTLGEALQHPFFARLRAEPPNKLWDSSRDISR
Experimental: as §1, §2, §3, §4, §5, §6, §7, §8, §9, §10, §11, §12, §13

CLK1 = CLK1 (Homo sapiens, UniProt P49759); experiment: as above; assay type: biochemical; settings: read-out: Enzymatic activity (IC50) CLK1
Sequence of CLK1 (P49759 whole entry): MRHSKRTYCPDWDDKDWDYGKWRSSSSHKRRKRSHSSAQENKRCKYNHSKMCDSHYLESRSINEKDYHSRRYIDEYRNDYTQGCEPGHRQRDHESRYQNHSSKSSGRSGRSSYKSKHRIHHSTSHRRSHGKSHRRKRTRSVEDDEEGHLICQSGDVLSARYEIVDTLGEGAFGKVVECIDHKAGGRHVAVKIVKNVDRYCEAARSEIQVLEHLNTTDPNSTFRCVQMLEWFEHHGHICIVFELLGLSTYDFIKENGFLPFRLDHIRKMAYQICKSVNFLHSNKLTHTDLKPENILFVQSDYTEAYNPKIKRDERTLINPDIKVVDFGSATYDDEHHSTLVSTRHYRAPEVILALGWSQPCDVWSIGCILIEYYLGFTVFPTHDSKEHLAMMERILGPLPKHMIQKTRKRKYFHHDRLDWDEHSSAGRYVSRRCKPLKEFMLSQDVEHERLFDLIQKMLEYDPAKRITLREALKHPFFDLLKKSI
Experimental: as §1, §2, §3, §4, §5, §6, §7, §8, §9, §10, §11, §12, §13

DYRK1A = DYRK1A (Homo sapiens, UniProt Q13627); experiment: as above; assay type: biochemical
Experimental: as §1, §2, §3, §4, §5, §6, §7, §8, §9, §10, §11, §12, §13

ACLT model rats = experiment: In vivo pharmacodynamics in osteoarthritis rats, RT-qPCR of cartilage; design: species or system rat; settings: for expression of ADAMTS5 in cartilage (RT-qPCR) / expression of IHH in cartilage (RT-qPCR) / expression of MMP3 in cartilage (RT-qPCR) / expression of MMP13 in cartilage (RT-qPCR): week 5, versus model group
Experimental: 1. 40 rats were evenly divided into 4 groups, namely, Control (normal rats injected with physiological saline into the joint cavity), Model (ACLT Model rats injected with physiological saline into the joint cavity), low-dose administration group (ACLT Model rats injected with LH020 (1.5 μg/kg) into the joint cavity), and high-dose administration group (ACLT Model rats injected with LH020 (6 μg/kg) into the joint cavity).
2. Knee osteoarthritis was induced by resection of anterior cruciate ligament of the rats (ACLT model).
3. The first week after surgery, physiological saline or LH-020 (1.5 μg/kg. 6 μg/kg) was injected into the joint cavity.
4. Week 5 after administration, cartilage was collected, and the expression of cartilage-associated proteases (MMP3, MMP13, ADAMTS5, IHH, etc.) was detected by RT-qPCR.

[1] = related art statement; cited from earlier work
[2] = read-out: Enzymatic activity (IC50) CLK3
[3] = read-out: Enzymatic activity (IC50) CLK2
[4] = read-out: Enzymatic activity (IC50) DYRK1A
[5] = high-dose group 6 μg/kg into the joint cavity, effect superior to low-dose group
[6] = low-dose group 1.5 μg/kg into the joint cavity

Sequence of CLK3 (P49761 whole entry): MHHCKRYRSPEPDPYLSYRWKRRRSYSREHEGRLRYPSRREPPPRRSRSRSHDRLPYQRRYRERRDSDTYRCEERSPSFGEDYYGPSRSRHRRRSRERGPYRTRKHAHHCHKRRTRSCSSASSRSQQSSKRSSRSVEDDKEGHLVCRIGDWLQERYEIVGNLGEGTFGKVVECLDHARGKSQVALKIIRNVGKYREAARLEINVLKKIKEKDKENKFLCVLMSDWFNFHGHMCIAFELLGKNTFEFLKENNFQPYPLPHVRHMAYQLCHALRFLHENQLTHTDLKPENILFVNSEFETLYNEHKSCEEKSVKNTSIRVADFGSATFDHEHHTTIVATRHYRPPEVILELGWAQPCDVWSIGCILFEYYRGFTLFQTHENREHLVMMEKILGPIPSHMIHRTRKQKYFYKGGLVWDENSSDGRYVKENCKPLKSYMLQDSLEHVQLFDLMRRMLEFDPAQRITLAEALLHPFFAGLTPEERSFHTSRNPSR

Compound	IC50 (CLK3; [2]) [nM]	IC50 (CLK4) [nM]	IC50 (CLK2; [3]) [nM]	IC50 (CLK1) [nM]	IC50 (DYRK1A; [4]) [nM]	other results
CC(C)CC(=O)Nc1cncc(-c2ccc3[nH]nc(-c4nc(=O)c5ccccc5[nH]4)c3c2)c1 [LH-001]	< 10	50 to 100	< 10	< 10	10 to 50	
O=C(CC1CC1)Nc1cncc(-c2ccc3[nH]nc(-c4nc(=O)c5ccccc5[nH]4)c3c2)c1 [LH-003]	< 10	> 100	< 10	< 10	50 to 100	
O=C(Nc1cncc(-c2ccc3[nH]nc(-c4nc(=O)c5ccccc5[nH]4)c3c2)c1)C1CCCC1 [LH-004]	10 to 50	50 to 100	10 to 50	< 10	10 to 50	
O=C(CC1CCCCC1)Nc1cncc(-c2ccc3[nH]nc(-c4nc(=O)c5ccccc5[nH]4)c3c2)c1 [LH-005]	50 to 100	10 to 50	10 to 50	50 to 100	10 to 50	
O=c1nc(-c2n[nH]c3ccc(-c4cncc(NCC5CCCCC5)c4)cc23)[nH]c2ccccc12 [LH-006]	50 to 100	10 to 50	10 to 50	10 to 50	10 to 50	
O=c1nc(-c2n[nH]c3ccc(-c4cncc(CN5CCC(F)(F)C5)c4)cc23)[nH]c2ccccc12 [LH-009]	< 10	10 to 50	< 10	< 10	< 10	
O=c1nc(-c2n[nH]c3ccc(-c4cccnc4)cc23)[nH]c2ccccc12 [LH-010]	10 to 50	> 100	< 10	10 to 50	10 to 50	
CN(C)Cc1cncc(-c2ccc3[nH]nc(-c4nc(=O)c5ccccc5[nH]4)c3c2)c1 [LH-011]	50 to 100	> 100	< 10	50 to 100	50 to 100	
CC(C)(C)C(=O)Nc1cncc(-c2ccc3[nH]nc(-c4nc(=O)c5ccccc5[nH]4)c3c2)c1 [LH-015]	10 to 50	< 10	< 10	10 to 50	< 10	
O=C(Nc1cncc(-c2ccc3[nH]nc(-c4nc(=O)c5ccccc5[nH]4)c3c2)c1)C1CC(F)(F)C1 [LH-016]	10 to 50	10 to 50	< 10	< 10	10 to 50	
CCS(=O)(=O)Nc1cncc(-c2ccc3[nH]nc(-c4nc(=O)c5ccccc5[nH]4)c3c2)c1 [LH-017]	> 100	50 to 100	< 10	< 10	< 10	
O=c1nc(-c2n[nH]c3ccc(-c4cncc(O)c4)cc23)[nH]c2ccccc12 [LH-018]	10 to 50	< 10	< 10	50 to 100	< 10	
CN1CCN(Cc2cncc(-c3ccc4[nH]nc(-c5nc(=O)c6ccccc6[nH]5)c4c3)c2)CC1 [LH-019]	> 100	50 to 100	< 10	< 10	10 to 50	
CC(C)C[C@H](N)COc1cncc(-c2ccc3[nH]nc(-c4nc(=O)c5ccccc5[nH]4)c3c2)c1 [LH-020]	50 to 100	10 to 50	< 10	< 10	< 10	chondroprotective effect (ACLT model rats; ACLT model rats, 1.5 and 6 μg/kg into the joint cavity): significant chondroprotective effect; expression of ADAMTS5 in cartilage (RT-qPCR) (ACLT model rats; [5]): significantly down-regulate; expression of IHH in cartilage (RT-qPCR) (ACLT model rats; [5]): significantly down-regulate; expression of MMP3 in cartilage (RT-qPCR) (ACLT model rats; [5]): significantly down-regulate; expression of MMP13 in cartilage (RT-qPCR) (ACLT model rats; [5]): significantly down-regulate; expression of ADAMTS5 in cartilage (RT-qPCR) (ACLT model rats; [6]): significantly down-regulate; expression of IHH in cartilage (RT-qPCR) (ACLT model rats; [6]): significantly down-regulate; expression of MMP3 in cartilage (RT-qPCR) (ACLT model rats; [6]): significantly down-regulate; expression of MMP13 in cartilage (RT-qPCR) (ACLT model rats; [6]): significantly down-regulate; selectivity index for CLK3 (CLK3; CLK3 versus CLK2): 41.5; IC50 (CLK3; read-out: IC50 for CLK3): 81 nM; IC50 (CLK2; read-out: IC50 for CLK2): 2 nM; IC50 (DYRK1A; read-out: IC50 for DYRK1A): 3 nM
CC(C)C[C@H](N)COc1cncc(-c2ccc3[nH]nc(-c4nc(=O)c5ccncc5[nH]4)c3c2)c1 [LH-037]	< 10	10 to 50	10 to 50	< 10	< 10	
CC(C)CC(=O)Nc1cncc(-c2ccc3[nH]nc(-c4cccnc4)c3c2)c1 [LH-039]	< 10	50 to 100	10 to 50	50 to 100	10 to 50	
CC(C)CC(=O)Nc1cncc(-c2ccc3[nH]nc(-c4ccncc4)c3c2)c1 [LH-040]	10 to 50	< 10	< 10	50 to 100	< 10	
CC(C)CC(=O)Nc1cncc(-c2ccc3[nH]nc(-c4ccc5ocnc5c4)c3c2)c1 [LH-041]	< 10	10 to 50	< 10	10 to 50	10 to 50	
CC(C)CC(=O)Nc1cncc(-c2ccc3[nH]nc(C4=NCc5ccccc5N4)c3c2)c1 [LH-048]	< 10	10 to 50	< 10	< 10	< 10	
FC1(F)CCN(Cc2cncc(-c3ccc4[nH]nc(C5=NCc6ccccc6N5)c4c3)c2)C1 [LH-049]	10 to 50	> 100	< 10	50 to 100	< 10	
CC(C)CC(=O)Nc1cncc(-c2ccc3[nH]nc(-c4nc5c(-c6cccc(F)c6)cncc5[nH]4)c3c2)c1 [SM04690]						water solubility [1]: poor
